pIC50: −log10 of the molar value.
tested on: H1N1 (influenza A/New Caledonia/20/99); experiment: microbe, parasite or virus in culture; type: cell-based; settings: H1N1, A549, 48 h

Q: With `COc1ccc(C(=O)Nc2sc3c(c2C(=O)O)CC(C)(C)CC3)cc1OC` [Compound #27, 2-[(3,4-Dimethoxybenzoyl)amino]-5,5-dimethyl-6,7-dihydro-4H-benzothiophene-3-carboxylic acid] as the compound, how does the pIC50 read?
A: 7.40

Q: With `CC1(C)CCc2sc(NC(=O)c3ccc(N4CCOCC4)cc3)c(C(=O)O)c2C1` [Compound #159, 5,5-Dimethyl-2-[(4-morpholinobenzoyl)amino]-6,7-dihydro-4H-benzothiophene-3-carboxylic acid] as the compound, how does the pIC50 read?
A: 7.74

Q: `CC1(C)CCc2c(sc(NC(=O)c3ccccn3)c2C(=O)O)C1` [Compound #96, 6,6-Dimethyl-2-(pyridine-2-carbonylamino)-5,7-dihydro-4H-benzothiophene-3-carboxylic acid] was tested. Which pIC50 did it give?
A: 6.10

Q: With `CC1(C)CCc2sc(NC(=O)c3ccc(OC(F)F)cc3)c(C(=O)O)c21` [Compound #39, 2-[[4-(Difluoromethoxy)benzoyl]amino]-4,4-dimethyl-5,6-dihydrocyclopenta[b]thiophene-3-carboxylic acid] as the compound, how does the pIC50 read?
A: 6.56

Q: How did the pIC50 turn out when `COCCNc1ccc(C(=O)Nc2sc3c(c2C(=O)O)C(C)(C)CC3)cc1` [Compound #64, 2-[[4-(2-Methoxyethylamino)benzoyl]amino]-4,4-dimethyl-5,6-dihydrocyclopenta[b]thiophene-3-carboxylicacid] was run?
A: 7.05

Q: `CC(=O)N1CC(Nc2ccc(C(=O)Nc3sc4c(c3C(=O)O)CC(C)(C)CC4(C)C)cc2)C1` [Compound #133, 2-[[4-[(1-Acetylazetidin-3-yl)amino]benzoyl]amino]-5,5,7,7-tetramethyl-4,6-dihydrobenzothiophene-3-carboxylic acid] was tested. Which pIC50 did it give?
A: 6.12

Q: How did the pIC50 turn out when `CC1(C)CCc2sc(NC(=O)c3ccc(N4CCOCC4)cc3)c(C(=O)O)c21` [Compound #41, 4,4-Dimethyl-2-[(4-morpholinobenzoyl)amino]-5,6-dihydrocyclopenta[b]thiophene-3-carboxylicacid] was run?
A: 6.98

Q: How did the pIC50 turn out when `CC1(C)Cc2c(sc(NC(=O)c3ccc(N4CCC(O)CC4)cc3)c2C(=O)O)C(C)(C)C1` [Compound #34, 2-[[4-(4-Hydroxy-1-piperidyl)benzoyl]amino]-5,5,7,7-tetramethyl-4,6-dihydrobenzothiophene-3-carboxylic acid] was run?
A: 6.95

Q: With `COC1CC(N(C)c2ccc(C(=O)Nc3sc4c(c3C(=O)O)CC(C)(C)CC4(C)C)cc2)C1` (centres unmarked) [#165, 2-[[4-[(3-Methoxycyclobutyl)-methyl-amino]benzoyl]amino]-5,5,7,7-tetramethyl-4,6-dihydrobenzothiophene-3-carboxylic acid] as the compound, how does the pIC50 read?
A: 7.93

Q: `COc1ccc(C(=O)Nc2sc3c(c2C(=O)O)C(C)(C)CC3)cc1OC` [Compound #38, 2-[(3,4-Dimethoxybenzoyl)amino]-4,4-dimethyl-5,6-dihydrocyclopenta[b]thiophene-3-carboxylic acid] was tested. Which pIC50 did it give?
A: 6.47

Q: How did the pIC50 turn out when `CC1(C)CCc2sc(NC(=O)c3cnc(N4CCOCC4)nc3)c(C(=O)O)c2C1` [#209, 5,5-Dimethyl-2-[(2-morpholinopyrimidine-5-carbonyl)amino]-6,7-dihydro-4H-benzothiophene-3-carboxylic acid] was run?
A: 6.09

Q: `CC1(C)CCc2sc(NC(=O)c3cccc(OC(F)F)c3)c(C(=O)O)c21` [Compound #98, 2-[[3-(Difluoromethoxy)benzoyl]amino]-4,4-dimethyl-5,6-dihydrocyclopenta[b]thiophene-3-carboxylic acid] was tested. Which pIC50 did it give?
A: 6.10

Q: With `CC1(C)CCc2c(sc(NC(=O)c3ccc(F)cc3F)c2C(=O)O)C1` [Compound #17, 2-[(2,4-Difluorobenzoyl)amino]-6,6-dimethyl-5,7-dihydro-4H-benzothiophene-3-carboxylic acid] as the compound, how does the pIC50 read?
A: 6.59

Q: How did the pIC50 turn out when `CC1(C)Cc2c(sc(NC(=O)c3ccc(NC4CCCCC4)cc3)c2C(=O)O)C(C)(C)C1` [Compound #149, 2-[[4-(Cyclohexylamino)benzoyl]amino]-5,5,7,7-tetramethyl-4,6-dihydrobenzothiophene-3-carboxylic acid] was run?
A: 8.15

Q: `CC1(C)Cc2c(sc(NC(=O)c3ccc(NCC4CCCCO4)cc3)c2C(=O)O)C(C)(C)C1` (centres unmarked) [#166, 5,5,7,7-Tetramethyl-2-[[4-(tetrahydropyran-2-ylmethylamino)benzoyl]amino]-4,6-dihydrobenzothiophene-3-carboxylic acid] was tested. Which pIC50 did it give?
A: 8.17

Q: `CC1(C)CCc2sc(NC(=O)c3ccc(N4CCC(O)CC4)cc3)c(C(=O)O)c21` [Compound #78, 2-[[4-(4-Hydroxy-1-piperidyl)benzoyl]amino]-4,4-dimethyl-5,6-dihydrocyclopenta[b]thiophene-3-carboxylic acid] was tested. Which pIC50 did it give?
A: 6.54

Q: How did the pIC50 turn out when `CC1(C)CCc2sc(NC(=O)c3ccc(N4CCOCC4)nn3)c(C(=O)O)c2C1` [#227, 5,5-Dimethyl-2-[(6-morpholinopyridazine-3-carbonyl)amino]-6,7-dihydro-4H-benzothiophene-3-carboxylic acid] was run?
A: 5.86

Q: How did the pIC50 turn out when `COC1CN(c2ccc(C(=O)Nc3sc4c(c3C(=O)O)C(C)CC(C)(C)C4)cc2)C1` (centres unmarked) [Compound #153, 2-[[4-(3-Methoxyazetidin-1-yl)benzoyl]amino]-4,6,6-trimethyl-5,7-dihydro-4H-benzothiophene-3-carboxylic acid] was run?
A: 7.85

Q: With `O=C(Nc1sc2c(c1C(=O)O)CCC1(CC1)C2)c1ccc(F)cc1` [Compound #32, 2-[(4-Fluorobenzoyl)amino]spiro[5,7-dihydro-4H-benzothiophene-6,1′-cyclopropane]-3-carboxylic acid] as the compound, how does the pIC50 read?
A: 6.80

Q: How did the pIC50 turn out when `CC1(C)Cc2c(sc(NC(=O)c3ccc(NC4CCCOC4)cc3)c2C(=O)O)C(C)(C)C1` (centres unmarked) [Compound #142, 5,5,7,7-Tetramethyl-2-[[4-(tetrahydropyran-3-ylamino)benzoyl]amino]-4,6-dihydrobenzothiophene-3-carboxylic acid] was run?
A: 8.19

Q: How did the pIC50 turn out when `COc1cccc(C(=O)Nc2sc3c(c2C(=O)O)CCC(C)(C)C3)c1` [Compound #21, 2-[(3-Methoxybenzoyl)amino]-6,6-dimethyl-5,7-dihydro-4H-benzothiophene-3-carboxylic acid] was run?
A: 7.25

Q: `CC1CC(C)(C)Cc2sc(NC(=O)c3ccccc3)c(C(=O)O)c21` (centres unmarked) [Compound #44, 2-Benzamido-4,6,6-trimethyl-5,7-dihydro-4H-benzothiophene-3-carboxylic acid] was tested. Which pIC50 did it give?
A: 7.05

Q: `CN(c1ccc(C(=O)Nc2sc3c(c2C(=O)O)CC(C)(C)CC3)cc1)C1CCOCC1` [#160, 5,5-Dimethyl-2-[[4-[methyl(tetrahydropyran-4-yl)amino]benzoyl]amino]-6,7-dihydro-4H-benzothiophene-3-carboxylic acid] was tested. Which pIC50 did it give?
A: 8.22

Q: `CC1(C)Cc2c(sc(NC(=O)c3ccncn3)c2C(=O)O)C(C)(C)C1` [#205, 5,5,7,7-Tetramethyl-2-(pyrimidine-4-carbonylamino)-4,6-dihydrobenzothiophene-3-carboxylic acid] was tested. Which pIC50 did it give?
A: 6.13

Q: With `CC1(C)Cc2c(sc(NC(=O)c3ccc(NCC4COC4)cc3)c2C(=O)O)C(C)(C)C1` [Compound #59, 5,5,7,7-Tetramethyl-2-[[4-(oxetan-3-ylmethylamino)benzoyl]amino]-4,6-dihydrobenzothiophene-3-carboxylic acid] as the compound, how does the pIC50 read?
A: 8.00

Q: How did the pIC50 turn out when `COc1ccc(C(=O)Nc2sc3c(c2C(=O)O)CCC(C)(C)C3)nc1` [Compound #25, 2-[(5-Methoxypyridine-2-carbonyl)amino]-6,6-dimethyl-5,7-dihydro-4H-benzothiophene-3-carboxylic acid] was run?
A: 7.05

Q: `CC1(C)CCc2sc(NC(=O)c3ccc(N4CCOCC4)nc3)c(C(=O)O)c2C1` [Compound #65, 5,5-Dimethyl-2-[(6-morpholinopyridine-3-carbonyl)amino]-6,7-dihydro-4H-benzothiophene-3-carboxylic acid] was tested. Which pIC50 did it give?
A: 6.70

Q: `CC1(C)CCc2sc(NC(=O)c3ccn(CC4CCOCC4)n3)c(C(=O)O)c2C1` [#228, 5,5-Dimethyl-2-[[1-(tetrahydropyran-4-ylmethyl)pyrazole-3-carbonyl]amino]-6,7-dihydro-4H-benzothiophene-3-carboxylic acid] was tested. Which pIC50 did it give?
A: 6.05

Q: How did the pIC50 turn out when `CC1(C)CCc2c(sc(NC(=O)c3ccc(F)cc3)c2C(=O)O)C1` [Compound #19, 2-[(4-Fluorobenzoyl)amino]-6,6-dimethyl-5,7-dihydro-4H-benzothiophene-3-carboxylic acid] was run?
A: 6.96

Q: `CC1CC(C)(C)Cc2sc(NC(=O)c3ccc(N(C)C4CCOCC4)cc3)c(C(=O)O)c21` (centres unmarked) [#171] was tested. Which pIC50 did it give?
A: 8.20

Q: With `CC1(C)CCc2c(sc(NC(=O)c3ccc(N4CCOCC4)nc3)c2C(=O)O)C1` [#204, 6,6-Dimethyl-2-[(6-morpholinopyridine-3-carbonyl)amino]-5,7-dihydro-4H-benzothiophene-3-carboxylic acid] as the compound, how does the pIC50 read?
A: 6.59

Q: `COCCN(C)c1ccc(C(=O)Nc2sc3c(c2C(=O)O)CC(C)(C)CC3(C)C)cc1` [Compound #150, 2-[[4-[2-Methoxyethyl(methyl)amino]benzoyl]amino]-5,5,7,7-tetramethyl-4,6-dihydrobenzothiophene-3-carboxylic acid] was tested. Which pIC50 did it give?
A: 8.41

Q: With `CC1(C)Cc2c(sc(NC(=O)c3ccc(NC4COC4)cc3)c2C(=O)O)C(C)(C)C1` [Compound #139, 5,5,7,7-Tetramethyl-2-[[4-(oxetan-3-ylamino)benzoyl]amino]-4,6-dihydrobenzothiophene-3-carboxylic acid] as the compound, how does the pIC50 read?
A: 7.96

Q: How did the pIC50 turn out when `CC(=O)N1CCC(Nc2ccc(C(=O)Nc3sc4c(c3C(=O)O)CC(C)(C)CC4(C)C)cc2)CC1` [Compound #63, 2-[[4-[(1-Acetyl-4-piperidyl)amino]benzoyl]amino]-5,5,7,7-tetramethyl-4,6-dihydrobenzothiophene-3-carboxylic acid] was run?
A: 7.10

Q: With `COC1CN(c2ccc(C(=O)Nc3sc4c(c3C(=O)O)CC(C)(C)CC4)cc2)C1` [#163, 2-[[4-(3-Methoxyazetidin-1-yl)benzoyl]amino]-5,5-dimethyl-6,7-dihydro-4H-benzothiophene-3-carboxylic acid] as the compound, how does the pIC50 read?
A: 7.74
